Source: article PMC10041537, “Molecular origins of mutational spectra produced by the environmental carcinogen N-nitrosodimethylamine and SN1 chemotherapeutic agents” (NAR Cancer, 2023)

How the values were obtained:
mouse genome [1] = assay: Duplex sequencing, high-resolution mutational spectra and pLOGO of liver of NDMA-treated Mgmt−/− mice; type: in vivo
Method: (§1) Most experiments utilized C57BL/6J gptΔ transgenic mice ([49],[50]), a gift from T. Nohmi. Some experiments used RaDR^R/R;gpt^g/g;Mgmt^−/− mice, which were created by crossing RaDR^R/R;gpt^g/gmice ([37]) with Mgmt^−/− mice ([51]). NDMA was synthesized and characterized as previously described ([52]) (Fig. S1). […] The first dose (3.5 mg/kg in 10 μl) was administered at 8 days of age, and the second dose (7 mg/kg in 20 μl) was administered at 15 days of age. Vehicle treated mice were administered equivalent volumes of saline. Mice were euthanized at ten weeks post-injection by CO2 inhalation. Both male and female mice were used in all experimental groups (n = 5) in all mouse experiments.
(§2) To determine the identity of mutations and the sequence contexts in which they occur, we utilized a form of error-corrected sequencing called duplex sequencing (DS). Previously, we described how DS can be used directly on genomic samples derived from the gptΔ mouse to yield high-resolution mutational spectra in an unbiased (unselected) manner ([49]). Unlike the traditional gptΔ assay, DS evaluates the mutations throughout the entire 6382 bp transgenic region (which contains the gpt gene), without the need for a phenotypic selection. In the present work, 6.4 kb gpt-containing plasmids from gptΔ mouse livers and cell culture were isolated using a Miniprep Kit (Qiagen) following instructions of the manufacturer. Approximately 6 μg of plasmid DNA was diluted in 1× TE buffer-low EDTA, pH 8 (Thermo Scientific), transferred to a microTUBE AFA Fiber Pre-Slit Snap-Cap (Covaris) and sonicated using a Covaris E220 Focused-ultrasonicator. The following program was used to obtain 300–350 bp fragments: peak incident power = 140 W, duty factor = 10%, cycles per burst = 200, treatment time = 80 s, temperature = 4–7°C. DS libraries for gptΔ C57BL/6J mice and MEFs were prepared using the NEBNext Ultra II DNA Library Prep (E7103, NEB) or as described in Chawanthayatham et al. ([49]) and sequenced on a NextSeq500 or NovaSeq 6000 Illumina platform by using a 150 bp paired-end protocol (MIT BioMicro Center). DS libraries for the gptΔ mouse lungs and Mgmt^−/− mice were prepared using an input of 1 μg or 500 ng genomic DNA, respectively, using a TwinStrand Biosciences, Inc. Mouse Mutagenesis Kit according to the manufacturer's protocol. This kit uses probes that hybridize to 20 genomic regions, each 2.4 kb long. The genomic coordinates are provided in Supplementary Table S1. These probes were purposely selected to map in intronic and intergenic regions, to avoid selection bias. The libraries were sequenced on an Illumina NovaSeq 6000 DNA sequencer on an S4 flow cell using a 150 bp paired-end protocol (MIT BioMicro Center).
(§3) For each sample, the two fastq files generated by the Illumina sequencer were converted into an unaligned bam file, using Picard Tools. The resulting bam file was processed using UnifiedConsensusMaker.py (version 3.0) as available from the Kennedy Lab at University of Washington (https://github.com/Kennedy-Lab-UW/Duplex-Sequencing). Briefly, this program queries the molecular tags on each read and assembles them into families (strands with the same tag). These are subsequently collapsed into single-strand consensus sequences (SSCS). Then, the software identifies the SSCS corresponding to the complementary strand; these are grouped together as a double-strand consensus sequence (DCS). Unpaired SSCSs were flagged and ignored for the rest of the analysis. Sequence information was accepted only when the information from the two complementary DNA strands was in perfect agreement. The DCSs (as fastq files) were subsequently aligned to the target region (6382 nt in the λ-EG10 genome) using Burrows-Wheeler aligner. Unmapped reads were filtered out. Finally, the properly aligned DCS reads were trimmed (bases 1–8 and 120–137) and collapsed into a pileup file using SamTools. […]

mouse genome [2] = assay: Duplex sequencing, high-resolution mutational spectra and pLOGO of liver and lung of NDMA-treated wild-type mice; type: in vivo, gptΔ C57BL/6J mice
Method: as §1, §2, §3

[3] = C at -6 relative to G→A mutation, liver, WT mice

SMILES: CN(C)N=O [NDMA, N-nitrosodimethylamine]
- pLOGO Frequency (%) (mouse genome [1]; A at 1, liver, Mgmt−/− mice): 31.4%
- pLOGO Value (log-odds binomial probability) (mouse genome [1]; A at 1, liver, Mgmt−/− mice): 47.10
- pLOGO Frequency (%) (mouse genome [1]; A at 2, liver, Mgmt−/− mice): 31.0%
- pLOGO Value (log-odds binomial probability) (mouse genome [1]; A at 2, liver, Mgmt−/− mice): 26.02
- pLOGO Frequency (%) (mouse genome [1]; A at 3, liver, Mgmt−/− mice): 29.4%
- pLOGO Value (log-odds binomial probability) (mouse genome [1]; A at 3, liver, Mgmt−/− mice): 12.99
- pLOGO Frequency (%) (mouse genome [1]; A at 5, liver, Mgmt−/− mice): 28.3%
- pLOGO Value (log-odds binomial probability) (mouse genome [1]; A at 5, liver, Mgmt−/− mice): 3.94
- pLOGO Frequency (%) (mouse genome [1]; A at -1, liver, Mgmt−/− mice): 42.5%
- pLOGO Value (log-odds binomial probability) (mouse genome [1]; A at -1, liver, Mgmt−/− mice): 256.46
- pLOGO Frequency (%) (mouse genome [1]; A at -2, liver, Mgmt−/− mice): 32.8%
- pLOGO Value (log-odds binomial probability) (mouse genome [1]; A at -2, liver, Mgmt−/− mice): 29.44
- pLOGO Frequency (%) (mouse genome [1]; A at -3, liver, Mgmt−/− mice): 29.2%
- pLOGO Value (log-odds binomial probability) (mouse genome [1]; A at -3, liver, Mgmt−/− mice): 4.17
- pLOGO Frequency (%) (mouse genome [1]; C at 2, liver, Mgmt−/− mice): 24.5%
- pLOGO Value (log-odds binomial probability) (mouse genome [1]; C at 2, liver, Mgmt−/− mice): 22.44
- pLOGO Frequency (%) (mouse genome [1]; G at 4, liver, Mgmt−/− mice): 23.1%
- pLOGO Value (log-odds binomial probability) (mouse genome [1]; G at 4, liver, Mgmt−/− mice): 13.22
- pLOGO Frequency (%) (mouse genome [1]; G at 5, liver, Mgmt−/− mice): 22.8%
- pLOGO Value (log-odds binomial probability) (mouse genome [1]; G at 5, liver, Mgmt−/− mice): 3.76
- pLOGO Frequency (%) (mouse genome [1]; G at 6, liver, Mgmt−/− mice): 24.8%
- pLOGO Value (log-odds binomial probability) (mouse genome [1]; G at 6, liver, Mgmt−/− mice): 20.10
- pLOGO Frequency (%) (mouse genome [1]; G at 7, liver, Mgmt−/− mice): 24.2%
- pLOGO Value (log-odds binomial probability) (mouse genome [1]; G at 7, liver, Mgmt−/− mice): 4.88
- pLOGO Frequency (%) (mouse genome [1]; G at -1, liver, Mgmt−/− mice): 41.6%
- pLOGO Value (log-odds binomial probability) (mouse genome [1]; G at -1, liver, Mgmt−/− mice): 324
- pLOGO Frequency (%) (mouse genome [1]; G at -2, liver, Mgmt−/− mice): 24.3%
- pLOGO Value (log-odds binomial probability) (mouse genome [1]; G at -2, liver, Mgmt−/− mice): 23.51
- pLOGO Frequency (%) (mouse genome [1]; G at -3, liver, Mgmt−/− mice): 22.9%
- pLOGO Value (log-odds binomial probability) (mouse genome [1]; G at -3, liver, Mgmt−/− mice): 4.27
- pLOGO Frequency (%) (mouse genome [1]; G at -4, liver, Mgmt−/− mice): 22.6%
- pLOGO Value (log-odds binomial probability) (mouse genome [1]; G at -4, liver, Mgmt−/− mice): 5.86
- pLOGO Frequency (%) (mouse genome [1]; G at -5, liver, Mgmt−/− mice): 22.8%
- pLOGO Value (log-odds binomial probability) (mouse genome [1]; G at -5, liver, Mgmt−/− mice): 4.67
- pLOGO Frequency (%) (mouse genome [1]; G at -6, liver, Mgmt−/− mice): 23.9%
- pLOGO Value (log-odds binomial probability) (mouse genome [1]; G at -6, liver, Mgmt−/− mice): 4.72
- AT→GC mutations, proportion of mutations (mouse genome [1]; Mgmt−/− mice): 1.7%
- pLOGO Frequency (%) (mouse genome [1]; T at -2, liver, Mgmt−/− mice): 24.7%
- pLOGO Value (log-odds binomial probability) (mouse genome [1]; T at -2, liver, Mgmt−/− mice): 9.33
- sequence context of GC→AT mutations (mouse genome [1]; liver of Mgmt−/− mice): 5’-PuGN-3’
- dominant single-base substitution (mouse genome [1]; liver of Mgmt−/− mice, 10 weeks post NDMA): GC→AT mutations
- cosine similarity of mutational patterns in Mgmt−/− and WT mice (mouse genome [1]; liver, baseline-corrected, normalized spectra): 0.98
- pLOGO Frequency (%) (mouse genome [2]; A at 1, lung, WT mice): 32.2%
- pLOGO Value (log-odds binomial probability) (mouse genome [2]; A at 1, lung, WT mice): 5.89
- pLOGO Frequency (%) (mouse genome [2]; A at 2, lung, WT mice): 32.0%
- pLOGO Value (log-odds binomial probability) (mouse genome [2]; A at 2, lung, WT mice): 4.51
- pLOGO Frequency (%) (mouse genome [2]; A at 3, liver, WT mice): 28.4%
- pLOGO Value (log-odds binomial probability) (mouse genome [2]; A at 3, liver, WT mice): 4.00
- pLOGO Frequency (%) (mouse genome [2]; A at -1, liver, WT mice): 30.9%
- pLOGO Value (log-odds binomial probability) (mouse genome [2]; A at -1, liver, WT mice): 52.74
- pLOGO Frequency (%) (mouse genome [2]; A at -1, lung, WT mice): 45.9%
- pLOGO Value (log-odds binomial probability) (mouse genome [2]; A at -1, lung, WT mice): 37.22
- pLOGO Frequency (%) (mouse genome [2]; A at -2, lung, WT mice): 34.3%
- pLOGO Value (log-odds binomial probability) (mouse genome [2]; A at -2, lung, WT mice): 6.29
- pLOGO Frequency (%) (mouse genome [2]; C at 1, liver, WT mice): 38.4%
- pLOGO Value (log-odds binomial probability) (mouse genome [2]; C at 1, liver, WT mice): 27.34
- pLOGO Frequency (%) (mouse genome [2]; C at 4, liver, WT mice): 26.0%
- pLOGO Value (log-odds binomial probability) (mouse genome [2]; C at 4, liver, WT mice): 6.07
- pLOGO Frequency (%) (mouse genome [2]; C at -3, liver, WT mice): 31.4%
- pLOGO Value (log-odds binomial probability) (mouse genome [2]; C at -3, liver, WT mice): 22.96
- pLOGO Frequency (%) (mouse genome [2]; C at -5, liver, WT mice): 26.7%
- pLOGO Value (log-odds binomial probability) (mouse genome [2]; C at -5, liver, WT mice): 4.79
- pLOGO Frequency (%) (mouse genome [2]; [3]): 28.0%
- pLOGO Value (log-odds binomial probability) (mouse genome [2]; [3]): 3.68
- pLOGO Frequency (%) (mouse genome [2]; G at -1, liver, WT mice): 47.4%
- pLOGO Value (log-odds binomial probability) (mouse genome [2]; G at -1, liver, WT mice): 193.23
- pLOGO Frequency (%) (mouse genome [2]; G at -1, lung, WT mice): 39.2%
- pLOGO Value (log-odds binomial probability) (mouse genome [2]; G at -1, lung, WT mice): 64.57
- pLOGO Frequency (%) (mouse genome [2]; T at 1, liver, WT mice): 23.8%
- pLOGO Value (log-odds binomial probability) (mouse genome [2]; T at 1, liver, WT mice): 4.97
- pLOGO Frequency (%) (mouse genome [2]; T at 1, lung, WT mice): 29.1%
- pLOGO Value (log-odds binomial probability) (mouse genome [2]; T at 1, lung, WT mice): 10.31
- sequence context dependency of GC→AT mutations (mouse genome [2]; WT mice, Pu = purine, N = any base): 5’-PuGN-3’
- AT→GC mutations, proportion of total number of mutations (mouse genome [2]; WT mice, after background subtraction): 4.6%
- dominant mutation type of mutational spectrum (mouse genome [2]; liver and lung of WT mice, 10 weeks post NDMA): GC→AT transition mutations
